Legend:
C2C12 muscle cells = assay: Analysis of glucose absorption (2-deoxyglucose) in differentiated C2C12 muscle cells; format: cell-based; settings: test materials 10 μM, times relative to control group
In short: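 Differentiated C2C12 myotubes (6 days in 1% serum) held 3 h in KRB with 5 mM glucose, then given test material at 10 μM. After 30 min, 0.2 μCi 2-deoxyglucose added for 20 min; uptake measured by radioactive counting of NaOH lysates.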

AMPK = assay: Measurement of AMPK activity by Western blot in C2C12 cells; format: cell-based; design: key to AMPK activity (degree of phosphorylation of serine-79 and threonine-172): fold increase in threonine-172 phosphorylation; AMPK activity (degree of phosphorylation of serine-79): unit not given here; settings: 10 μM for 50 minutes; for AMPK activity (degree of phosphorylation of serine-79 and threonine-172): no superscript: Western blot of serine-79 and threonine-172 phosphorylation; for AMPK activity (degree of phosphorylation of serine-79): footnote a: Western blot of serine-79 phosphorylation; for AMPK activity (class: degree of phosphorylation of threonine-172): strong/mild/weak
In short: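 Differentiated C2C12 cells were exposed to test material at 10 μM for 50 minutes, then lysed. AMPK activity was taken from Western blots of Thr-172 phosphorylation and acetyl CoA carboxylase Ser-79 phosphorylation, with ERK as loading reference. Thr-172 rise was graded strong (≥3-fold), mild (1-3-fold) or weak (<1-fold).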

SMILES	Glucose absorption (C2C12 muscle cells)	AMPK activity (degree of phosphorylation of serine-79 and threonine-172) (AMPK)	AMPK activity (degree of phosphorylation of serine-79) (AMPK)	AMPK activity (class: degree of phosphorylation of threonine-172) (AMPK)
COc1ccccc1CNc1nc(C(OC)c2ccccc2)nc2ccccc12 (stereo not shown) [Compound 360, (2-Methoxybenzyl)-[2-(methoxyphenylmethyl)-quinazolino-4-yl]-amine]	1.4	2.2		
CCSc1nc(NCCN2CCOCC2)c2ccccc2n1 [Compound 11, (2-Ethylsulfanylquinazolino-4-yl)-(2-morpholino-4-ylethyl)-amine]	1.0		3.2^a	
CC(c1ccccc1)c1nc(NCc2ccc3c(c2)OCO3)c2ccccc2n1 (stereo not shown) [Compound 374, Benzo[1,3]dioxol-5-ylmethyl-[2-(1-phenylethyl)-quinazolino-4-yl]-amine]	1.1	1.9		
COc1cc(CNc2nc(N3CCCC3)nc3ccccc23)cc(OC)c1 [Compound 303, (3,5-Dimethoxybenzyl)-(2-pyrrolidino-1-ylquinazolino-4-yl)-amine]	1.0	1.0		
CC(Nc1nc(C(Cl)(Cl)Cl)nc2ccccc12)c1ccccc1 (stereo not shown) [Compound 5, (1-Phenylethyl)-(2-trichloromethylquinazolino-4-yl)-amine]	0.9		4.7^a	
COc1ccccc1CNc1nc(N2CCCC2)nc2ccccc12 [Compound 275, (2-Methoxybenzyl)-(2-pyrrolidino-1-ylquinazolino-4-yl)-amine]	0.8	2.1		
Fc1ccccc1CCNc1nc(-c2ccccc2)nc2ccccc12 [Compound 140, [2-(2-Fluorophenyl)-ethyl]-(2-phenylquinazolino-4-yl)-amine]	2.7	3.1		strong (“strong” means that the degree of phosphorylation of threonine-172 increased by 3 times or more)
CCOc1cc2ncnc(NCCc3ccccn3)c2cc1OCC [Compound 17, (6,7-Diethoxyquinazolino-4-yl)-(2-pyridino-2-ylethyl)-amine]	1.2		2.2^a	
Cc1nc(NCc2cccc(C(F)(F)F)c2)c2ccccc2n1 [Compound 166, (2-Methylquinazolino-4-yl)-(3-trifluoromethylbenzyl)-amine]	2.8	3.8		strong (“strong” means that the degree of phosphorylation of threonine-172 increased by 3 times or more)
OCCOCCNc1nc(-c2ccccc2)nc2ccccc12 [Compound 1, 2-[2-(2-Phenylquinazolino-4-ylamino)-ethoxy]-ethanol]	1.7		6.0^a	
O=[N+]([O-])c1ccc2ncnc(Nc3ccccc3)c2c1 [Compound 13, (6-Nitro-quinazolino-4-yl)-phenylamine]	0.7		4.2^a	
COc1cc(CNc2nc(N3CCN(C)CC3)nc3ccccc23)cc(OC)c1 [Compound 306, (3,5-Dimethoxybenzyl)-[2-(4-methylpiperazino-1-yl)-quinazolino-4-yl]-amine]	0.8	1.7		
COc1cc(OC)c(CNc2nc(C(C)c3ccccc3)nc3ccccc23)c(OC)c1 (stereo not shown) [Compound 381, [2-(1-Phenylethyl)-quinazolino-4-yl]-(2,4,6-trimethoxybenzyl)-amine]	1.2	4.0		
COc1cc(CNc2nc(Cc3ccccc3)nc3ccccc23)cc(OC)c1 [Compound 330, (2-Benzylquinazolino-4-yl)-(3,5-dimethoxybenzyl)-amine]	1.2	1.7		
Cc1nc(NCc2ccccc2)c2ccccc2n1 [Compound 163, Benzyl-(2-methylquinazolino-4-yl)-amine]	2.5	2.8		strong (“strong” means that the degree of phosphorylation of threonine-172 increased by 3 times or more)
ClC(Cl)(Cl)c1nc(NCCN2CCCCC2)c2ccccc2n1 [Compound 4, (2-Piperidino-1-ylethyl)-(2-trichloromethylquinazolino-4-yl)-amine]	1.2		3.5^a	
COc1ccc(CNc2nc(C(C)c3ccccc3)nc3ccccc23)cc1OC (stereo not shown) [Compound 377, (3,4-Dimethoxybenzyl)-[2-(1-phenylethyl)-quinazolino-4-yl]-amine]	1.1	2.3		
COc1ccc(CNc2ncnc3ccccc23)c(OC)c1 [Compound 412, (2,4-Dimethoxybenzyl)-quinazolino-4-ylamine]	1.7	8.4		
CCOc1cc2ncnc(NCc3cccc4ccccc34)c2cc1OCC [Compound 14, (6,7-Diethoxyquinazolino-4-yl)-naphthaleno-1-ylmethylamine]	1.2		3.6^a	
COc1cc(CNc2ncnc3ccccc23)cc(OC)c1OC [Compound 411, Quinazolino-4-yl-(3,4,5-trimethoxybenzyl)-amine]	1.2	1.8		
COc1cccc(CNc2ncnc3ccccc23)c1OC [Compound 408, (2,3-Dimethoxybenzyl)-quinazolino-4-ylamine]	1.6	3.5		
c1ccc(-c2nc(NCc3ccc4c(c3)OCO4)c3ccccc3n2)nc1 [Compound 230, Benzo[1,3]dioxol-5-ylmethyl-(2-pyridino-2-ylquinazolino-4-yl)-amine]	1.7	4.9		strong (“strong” means that the degree of phosphorylation of threonine-172 increased by 3 times or more)
COc1ccc(CNc2nc(N3CCCC3)nc3ccccc23)cc1 [Compound 283, (4-Methoxybenzyl)-(2-pyrrolidino-1-ylquinazolino-4-yl)-amine]	1.0	1.1		
CC(C)c1nc(NCCCCc2ccccc2)c2ccccc2n1 [Compound 180, (2-Isopropylquinazolino-4-yl)-(4-phenylbutyl)-amine]	4.1	3.9		strong (“strong” means that the degree of phosphorylation of threonine-172 increased by 3 times or more)
Brc1ccccc1CNc1nc(-c2ccccc2)nc2ccccc12 [Compound 155, (2-Bromobenzyl)-(2-phenylquinazolino-4-yl)-amine]	2.7	1.3		mild (“mild” means that the degree of phosphorylation of threonine-172 increased by 1 to 3 times)
c1ccc(-c2nc(NCc3cccc4ccccc34)c3ccccc3n2)nc1 [Compound 229, Naphthaleno-1-ylmethyl-(2-pyridino-2-ylquinazolino-4-yl)-amine]	1.9	4.7		strong (“strong” means that the degree of phosphorylation of threonine-172 increased by 3 times or more)
CC(C)(C)c1nc(NCCc2cccc(F)c2)c2ccccc2n1 [Compound 196, (2-tert-Butylquinazolino-4-yl)-[2-(3-fluorophenyl)-ethyl]-amine]	2.1	4.8		strong (“strong” means that the degree of phosphorylation of threonine-172 increased by 3 times or more)
FCCNc1nc(-c2ccccc2)nc2ccccc12 [Compound 114, (2-Fluoro-ethyl)-(2-phenylquinazolino-4-yl)-amine]	2.2	2.0		strong (“strong” means that the degree of phosphorylation of threonine-172 increased by 3 times or more)
CCCc1nc(NCc2cc(OC)cc(OC)c2)c2ccccc2n1 [Compound 398, (3,5-Dimethoxybenzyl)-(2-propylquinazolino-4-yl)-amine]	1.4	7.8		

Reference: US20080207614A1, “QUINAZOLINE DERIVATIVES FOR THE TREATMENT AND PREVENTION OF DIABETES AND OBESITY” (SK CHEMICALS CO., LTD., priority 2004, published 2008)
